Inhibition and IC50 data for 41 compounds are collected here from ChEMBL document CHEMBL4422680, “Synthesis, biological evaluation, and molecular docking study of novel allyl-retrochalcones as a new class of protein tyrosine phosphatase 1B inhibitors” (Bioorg Med Chem, 2019).

In assay [1] the target is T1, Tyrosine-protein phosphatase non-receptor type 1 (Homo sapiens) (UniProt P18031).
T1 sequence (whole entry): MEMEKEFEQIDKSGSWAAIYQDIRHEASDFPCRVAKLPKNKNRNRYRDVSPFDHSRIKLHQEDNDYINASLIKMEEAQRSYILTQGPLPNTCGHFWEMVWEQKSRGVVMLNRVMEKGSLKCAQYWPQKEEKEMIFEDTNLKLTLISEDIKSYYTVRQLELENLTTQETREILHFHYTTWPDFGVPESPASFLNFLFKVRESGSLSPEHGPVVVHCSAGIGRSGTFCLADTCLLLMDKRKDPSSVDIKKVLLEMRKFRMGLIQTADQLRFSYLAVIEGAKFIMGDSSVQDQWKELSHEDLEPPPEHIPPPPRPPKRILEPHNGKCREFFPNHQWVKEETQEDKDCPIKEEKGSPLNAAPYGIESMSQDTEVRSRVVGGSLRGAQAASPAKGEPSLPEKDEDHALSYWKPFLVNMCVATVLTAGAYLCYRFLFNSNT
The assay can be described thus: (§1) Inhibition of recombinant human PTP1B using pNPP as substrate measured after 30 mins.

Assay [2] has as its target T2, Tyrosine-protein phosphatase non-receptor type 1 (Homo sapiens, UniProt P18031).
T2 sequence (P18031 whole entry): T1 sequence (whole entry)
The assay is described as §1.

In the case of `C=CCc1cc(/C=C/C(=O)c2ccc(OCC(=O)OCC)cc2)c(OC)cc1O`, the inhibition entry in assay [1] is “Dose-dependent effect”. In addition, the IC50 in assay [2] (read-out: IC50) was found to be 9.4 µM.

In the case of `C=CCc1cc(/C=C/C(=O)c2ccccc2N(C)C)c(OC)cc1O`, the inhibition entry in assay [1] is “Dose-dependent effect”. For the same compound, the IC50 in assay [2] (read-out: IC50) turned out to be 16.3 µM.

`C=CCc1cc(/C=C/C(=O)c2ccc(OCC(=O)O)cc2)c(OC)cc1O`: the inhibition entry in assay [1] was “Dose-dependent effect”. Further, in assay [2] (read-out: IC50), the IC50 is 12.6 µM.

`C=CCc1cc(/C=C/C(=O)c2ccc(OCCCCC(=O)O)cc2)c(OC)cc1O`: the inhibition entry in assay [1] was “Dose-dependent effect”. In assay [2] (read-out: IC50), the IC50 came to 5.8 µM.

Regarding `C=CCc1cc(/C=C/C(=O)c2cccc(N(C)C)c2)c(OC(C)C)cc1O`, the inhibition result in assay [1] was “Dose-dependent effect”. In assay [2] (read-out: IC50), the IC50 was found to be 6.9 µM.

With `C=CC(C)(C)c1cc(/C=C/C(=O)c2ccc(O)cc2)c(OC)cc1O`, the inhibition entry in assay [1] is “Dose-dependent effect”.

With `C=CCc1cc(/C=C/C(=O)c2cccc(NS(C)(=O)=O)c2)c(OC)cc1O`, in assay [2], the IC50 entry is “Not Active”.

As for `C=CCc1cc(/C=C/C(=O)c2ccc(OC)c(C(C)C(=C)C)c2)c(OC)cc1O` (stereo unspecified), the inhibition result in assay [1] is “Dose-dependent effect”. Also, the IC50 in assay [2] (read-out: IC50) stood at 5.4 µM.

For the compound `C[C@H]1[C@H](C)CC[C@]2(C(=O)O)CC[C@]3(C)C(=CC[C@@H]4[C@@]5(C)CC[C@H](O)C(C)(C)[C@@H]5CC[C@]43C)[C@H]12`, the inhibition result in assay [1] was “Dose-dependent effect”.

For the compound `C=CCc1cc(/C=C/C(=O)c2ccc(O)cc2)c(OC)cc1OC1CCCCO1` (stereo unspecified), the inhibition result in assay [1] is “Dose-dependent effect”. For the same compound, in assay [2] (read-out: IC50), the IC50 turned out to be 9.4 µM.

As to `C=CCc1cc(/C=C/C(=O)c2ccc(OCCCC(=O)OCC)cc2)c(OC)cc1O`, in assay [1], the inhibition result was “Dose-dependent effect”. For the same compound, the IC50 in assay [2] (read-out: IC50) came out at 25.6 µM.

With `C=CCc1cc(/C=C/C(=O)c2ccc(N(C)C)cc2)c(OC)cc1O`, the inhibition entry in assay [1] was “Dose-dependent effect”. The IC50 in assay [2] (read-out: IC50) was 6.9 µM.

For the compound `C=CCc1cc(/C=C/C(=O)c2ccc(OC)cc2O)c(OC)cc1O`, the inhibition result in assay [1] is “Dose-dependent effect”. Besides, the IC50 in assay [2] (read-out: IC50) worked out at 24.8 µM.

As to `C=CCOc1ccc(C(=O)/C=C/c2cc(CC=C)c(O)cc2OC)c(O)c1`, the inhibition entry in assay [1] was “Dose-dependent effect”. For the same compound, the half-maximal inhibitory concentration (IC50) in assay [2] (read-out: IC50) amounted to 6.5 µM.

As for `C=CCc1cc(/C=C/C(=O)c2ccc(OCC=C(C)C)cc2O)c(OC)cc1O`, the inhibition result in assay [1] was “Dose-dependent effect”. Also, the IC50 in assay [2] (read-out: IC50) was determined as 3 µM.

Turning to `C=CCOc1ccc(C(=O)/C=C/c2cc(CC=C)c(O)cc2OC)c(OC)c1`, the inhibition result in assay [1] was “Dose-dependent effect”. Further, the IC50 in assay [2] (read-out: IC50) is 3.9 µM.

Regarding `C=C(C)[C@H](C)c1cc(/C=C/C(=O)c2ccc(O)cc2)c(OC)cc1O` [LICOCHALCONE E], the inhibition result in assay [1] is “Dose-dependent effect”. Also, in assay [2] (read-out: IC50), the IC50 was found to be 4 µM.

In the case of `C=CCOc1ccc(C(=O)/C=C/c2cc(CC=C)c(OC3CCCCO3)cc2OC)c(O)c1` (stereo unspecified), the IC50 entry in assay [2] is listed as “Not Active”.

As for `C=CCc1cc(/C=C/C(=O)c2ccc(N3CCCCC3)cc2)c(OC)cc1O`, the inhibition result in assay [1] was “Dose-dependent effect”. In addition, the IC50 in assay [2] (read-out: IC50) stood at 6.9 µM.

Regarding `C=CCc1cc(/C=C/C(=O)c2ccc(-n3cccn3)cc2)c(OC)cc1O`, the inhibition entry in assay [1] was “Dose-dependent effect”. Besides, the IC50 in assay [2] (read-out: IC50) is 6.3 µM.

Turning to `C=CCOc1ccc(C(=O)/C=C/c2cc(CC=C)c(O)cc2OC)cc1`, the inhibition entry in assay [1] was “Dose-dependent effect”. The IC50 in assay [2] (read-out: IC50) came to 5.4 µM.

Turning to `C=CCc1cc(/C=C/C(=O)c2ccc(OCCCCC(=O)OCC)cc2)c(OC)cc1O`, the inhibition result in assay [1] was “Dose-dependent effect”. For the same compound, the IC50 in assay [2] (read-out: IC50) stood at 3.9 µM.

Turning to `C=CCc1cc(/C=C/C(=O)c2ccc(OC(=O)c3ccccc3)cc2)c(OC)cc1O`, in assay [1], the inhibition result is “Dose-dependent effect”. The IC50 in assay [2] (read-out: IC50) turned out to be 4.6 µM.

As for `C=CCc1cc(/C=C/C(=O)c2cccc(N(CC=C)CC=C)c2)c(OC)cc1O`, the inhibition entry in assay [1] is “Dose-dependent effect”. Further, the IC50 in assay [2] (read-out: IC50) is 4.7 µM.

In the case of `C=CCc1cc(/C=C/C(=O)c2ccc(OCCCC(=O)O)cc2)c(OC)cc1O`, in assay [2] (read-out: IC50), the IC50 amounted to 32.8 µM.

As for `C=CCc1cc(/C=C/C(=O)c2ccc(OC)c(CC=C(C)C)c2)c(OC)cc1O`, the inhibition entry in assay [1] is “Dose-dependent effect”. In assay [2] (read-out: IC50), the IC50 was 8.2 µM.

Regarding `C=CCc1cc(/C=C/C(=O)c2ccc(N(CC=C)CC=C)cc2)c(OC)cc1O`, the inhibition result in assay [1] was “Dose-dependent effect”. For the same compound, the IC50 in assay [2] (read-out: IC50) came out at 5.9 µM.

As to `C=CCc1cc(/C=C/C(=O)c2cccc(OC)c2)c(OC)cc1O`, the inhibition entry in assay [1] was “Dose-dependent effect”. For the same compound, in assay [2] (read-out: IC50), the IC50 was 14.6 µM.

In the case of `C=CCc1cc(/C=C/C(=O)c2ccc(OC(=O)c3ccc(Br)cc3)cc2)c(OC)cc1O`, in assay [1], the inhibition result is “Dose-dependent effect”. Also, the IC50 in assay [2] (read-out: IC50) stood at 6.6 µM.

On to `C=CCc1cc(/C=C/C(=O)c2ccc(O)cc2)c(OC)cc1O`, for which, in assay [1], the inhibition entry was “Dose-dependent effect”. Besides, the half-maximal inhibitory concentration (IC50) in assay [2] (read-out: IC50) came out at 12.9 µM.

Turning to `C=CCc1cc(/C=C/C(=O)c2cc3c(cc2N(C)C)OCO3)c(OC)cc1O`, in assay [1], the inhibition result is “Dose-dependent effect”. Also, the IC50 in assay [2] (read-out: IC50) is 11.8 µM.

Take `C=CCc1cc(/C=C/C(=O)c2ccc(N3CCOCC3)cc2)c(OC)cc1O`: the inhibition result in assay [1] was “Dose-dependent effect”. In addition, in assay [2] (read-out: IC50), the IC50 was found to be 12.3 µM.

Consider `C=CCc1cc(/C=C/C(=O)c2ccc(OCC=C(C)C)cc2)c(OC)cc1O`, for which, in assay [1], the inhibition entry is “Dose-dependent effect”. Moreover, the IC50 in assay [2] (read-out: IC50) was 5.9 µM.

Take `C=CCc1cc(/C=C/C(=O)c2ccc(OC)cc2)c(OC)cc1O`: in assay [1], the inhibition entry is “Dose-dependent effect”. Besides, in assay [2] (read-out: IC50), the IC50 was 7.4 µM.

As to `C=CCc1cc(/C=C/C(=O)c2cccc(N3CCCCC3)c2)c(OC)cc1O`, in assay [1], the inhibition result is “Dose-dependent effect”. In addition, in assay [2] (read-out: IC50), the IC50 is 7.2 µM.

Take `C=CCc1cc(/C=C/C(=O)c2ccc(OCC)cc2)c(OC)cc1O`: the inhibition result in assay [1] is “Dose-dependent effect”. Moreover, the 50% inhibitory concentration (IC50) in assay [2] (read-out: IC50) was 5.3 µM.

For `C=CCc1cc(/C=C/C(=O)c2ccccc2N2CCCCC2)c(OC)cc1O`, in assay [1], the inhibition result was “Dose-dependent effect”. Further, in assay [2] (read-out: IC50), the IC50 amounted to 9.5 µM.

Turning to `C=CCc1cc(/C=C/C(=O)c2ccc(OC(=O)c3ccc(C(C)(C)C)cc3)cc2)c(OC)cc1O`, the inhibition result in assay [1] was “Dose-dependent effect”. In addition, the IC50 in assay [2] (read-out: IC50) was 5 µM.

Take `C=CCc1cc(/C=C/C(=O)c2cccc(N(C)C)c2)c(OCc2ccccc2)cc1O`: in assay [1], the inhibition entry was “Dose-dependent effect”. Moreover, the IC50 in assay [2] (read-out: IC50) amounted to 5 µM.

Take `C=CCc1cc(/C=C/C(=O)c2cccc(O)c2)c(OC)cc1O`: in assay [2], the IC50 entry is “Not Active”.

As to `C=CCc1cc(/C=C/C(=O)c2ccc(OC)c(CC=C)c2)c(OC)cc1O`, the inhibition entry in assay [1] is “Dose-dependent effect”. Also, the IC50 in assay [2] (read-out: IC50) stood at 10.9 µM.
